# According to US6461997B1, “Triazole sulfones having herbicidal activity” (Monsanto Technology LLC, priority 1999, dated 2002):
# Key:
# SINAR (wild mustard) = assay: Pre-emergence herbicidal activity, cool season; format: in vivo, Sinapis arvensis; details: lowest tested rate with 80% or greater inhibition; rates 300, 100, 30, 10 g/ha; about 14 days
# Summary of the method: (§1)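 Seeds sown in sterilised fertilised topsoil received surface-applied compound in 50:50 acetone/water, typically at 300, 100, 30 and 10 g/ha, then greenhouse-grown at 30/21° C (warm-season species) or 18/13° C (cool-season species). Percent inhibition versus untreated plants was scored at about 14 days, giving GR80; an asterisk marks activity short of 80% at the top rate.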
# [1] = test system: GALAP (catchweed bedstraw); assay: Post-emergence herbicidal activity, cool season; format: in vivo, Galium aparine; details: abraded plants sprayed; GR80 = lowest tested rate (300, 100, 30, 10 g/ha) with 80% or greater inhibition; approx. 14 days after treatment; 18/13° C.
# Method: (§2) In another set of tests, the post-emergence activity of compounds of this invention was evaluated on the cool season species listed above. The following procedure was used.
# (§3) A pre-prepared topsoil mixture (described above) was placed in a pot and compacted to a depth of 1.0 to 1.25 cm from the top of the pot. Seeds of each of several monocotyledonous and dicotyledonous annual plant species were placed on top of the soil. The seeds were covered with a mixture of 50% topsoil and 50% Rediearth™ in sufficient quantity to level-fill the pots. The pots were then placed on a greenhouse bench and subirrigated as needed.
# When plants growing from the seeds had emerged and reached a suitable growth stage for post-emergence treatment, typically 9 to 14 days after planting, above-ground parts of the plants were subjected to a pre-treatment involving abrasion to create greater opportunity for foliar uptake of subsequently applied compounds. Abrasion was performed using garnet 200w particles applied with a Sears Craftsman hand-held sandblaster operated at approximately 850 kPa (50 psig) pressure. […]
# After treatment the plants were placed in a greenhouse with an 18/13° C. day/night temperature regime and were subsequently watered as needed for growth. Approximately 14 days after treatment, the plants were observed and herbicidal efficacy recorded as percent inhibition by comparison with control plants. […]
# LOLMG (annual ryegrass) = assay: Post-emergence herbicidal activity, cool season; format: in vivo, Lolium multiflorum; details: abraded plants sprayed at 300, 100, 30 and 10 g/ha; about 14 days after treatment
# Method: as §2, §3
# (§4) When plants growing from the seeds had emerged and reached a suitable growth stage for post-emergence treatment, typically 9 to 14 days after planting, above-ground parts of the plants were subjected to a pre-treatment involving abrasion to create greater opportunity for foliar uptake of subsequently applied compounds. Abrasion was performed using garnet 200w particles applied with a Sears Craftsman hand-held sandblaster operated at approximately 850 kPa (50 psig) pressure.
# (§5) A known amount of each test compound dissolved or suspended in an appropriate organic solvent was diluted with a 50:50 mix of acetone and water and applied to the plants by spraying with a standard spray nozzle in a spray volume of […] at a spray pressure of 511 kPa (30 psig). Only the compounds of Examples 1, 8-15 and 17-22 were included in post-emergence tests. Application rates for these compounds were 300, 100, 30 and 10 g/ha. Control plants were abraded but not sprayed.
# (§6) After treatment the plants were placed in a greenhouse with an 18/13° C. day/night temperature regime and were subsequently watered as needed for growth. Approximately 14 days after treatment, the plants were observed and herbicidal efficacy recorded as percent inhibition by comparison with control plants. GR80 values were assigned for each compound as described above for the pre-emergence tests.
# [2] = test system: BRAPP (broadleaf signalgrass); assay: Pre-emergence herbicidal activity, warm season; format: in vivo, Brachiaria platyphylla; details: GR80 = lowest tested rate (300, 100, 30, 10 g/ha) with 80% or greater inhibition; approx. 14 days after treating; 30/21° C.
# Summary of the method: (§7)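 GR80 values derive from percent inhibition relative to untreated plants, read roughly 14 days after sowing and pre-emergence soil-surface treatment (compound in 50:50 acetone/water; rates typically 10, 30, 100, 300 g/ha). Warm-season weeds grew at 30/21° C day/night, cool-season ones at 18/13° C; an asterisk marks activity without reaching 80% at the highest rate.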
# [3] = test system: AEGCY (jointed goatgrass); assay: Post-emergence herbicidal activity, cool season; format: in vivo, Aegilops cylindrica; details: abraded plants sprayed at 300, 100, 30 and 10 g/ha; about 14 days after treatment
# Method: as §2, §3, §4, §5, §6
# [4] = test system: AGRRE (quackgrass (seedling)); assay: Post-emergence herbicidal activity, cool season; format: in vivo, Elymus repens; details: abraded plants sprayed at 300, 100, 30 and 10 g/ha; about 14 days after treatment
# Method: as §2, §3, §4, §5, §6
# [5] = test system: AGSST (creeping bentgrass); assay: Pre-emergence herbicidal activity, cool season; format: in vivo, Agrostis stolonifera; details: GR80 = lowest tested rate (300, 100, 30, 10 g/ha) with 80% or greater inhibition; approx. 14 days after treating; 18/13° C.
# Summary of the method: as §1
# [6] = test system: AGSST (creeping bentgrass); assay: Post-emergence herbicidal activity, cool season; format: in vivo, Agrostis stolonifera; details: abraded plants sprayed at 300, 100, 30 and 10 g/ha; about 14 days after treatment
# Method: as §2, §3, §4, §5, §6
# BROTE (downy brome) = assay: Post-emergence herbicidal activity, cool season; format: in vivo, Bromus tectorum; details: abraded plants sprayed at 300, 100, 30 and 10 g/ha; about 14 days after treatment
# Method: as §2, §3, §4, §5, §6
# [7] = test system: PANMI (wild proso millet); assay: Pre-emergence herbicidal activity, warm season; format: in vivo, Panicum miliaceum; details: GR80 = lowest tested rate (300, 100, 30, 10 g/ha) with 80% or greater inhibition; approx. 14 days after treating; 30/21° C.
# Summary of the method: (§8)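 Each pot received seeds on sterilized fertilized topsoil, a soil cover, and a surface spray of compound (300–10 g/ha, acetone/water 50:50). Plants grew about 14 days at 30/21 °C (PANMI, DIGSA) or 18/13 °C (ALOMY, POLCO) before inhibition was rated against untreated pots to give GR80.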
# SORVU (shattercane) = assay: Pre-emergence herbicidal activity, warm season; format: in vivo, Sorghum vulgare; details: GR80 = lowest tested rate (300, 100, 30, 10 g/ha) with 80% or greater inhibition; approx. 14 days after treating; 30/21° C.
# Summary of the method: as §7
# SETVI (green foxtail) = assay: Post-emergence herbicidal activity, cool season; format: in vivo, Setaria viridis; details: abraded plants sprayed at 300, 100, 30 and 10 g/ha; about 14 days after treatment
# Method: as §2, §3, §4, §5, §6
# POLCO (wild buckwheat) = assay: Pre-emergence herbicidal activity, cool season; format: in vivo, Polygonum convolvulus; details: lowest tested rate with 80% or greater inhibition; rates 300, 100, 30, 10 g/ha; about 14 days
# Summary of the method: as §8
# ECHCG (barnyardgrass) = assay: Pre-emergence herbicidal activity, warm season; format: in vivo, Echinochloa crus-galli; details: GR80 = lowest tested rate (300, 100, 30, 10 g/ha) with 80% or greater inhibition; approx. 14 days after treating; 30/21° C.
# Summary of the method: as §7
# SASKR (russian thistle) = assay: Pre-emergence herbicidal activity, cool season; format: in vivo, Salsola kali; details: lowest tested rate with 80% or greater inhibition; rates 300, 100, 30, 10 g/ha; about 14 days
# Summary of the method: as §1
# STEME (common chickweed) = assay: Pre-emergence herbicidal activity, cool season; format: in vivo, Stellaria media; details: lowest tested rate with 80% or greater inhibition; rates 300, 100, 30, 10 g/ha; about 14 days
# Summary of the method: as §1
# ALOMY (blackgrass) = assay: Post-emergence herbicidal activity, cool season; format: in vivo, Alopecurus myosuroides; details: abraded plants sprayed at 300, 100, 30 and 10 g/ha; about 14 days after treatment
# Method: as §2, §3, §4, §5, §6
# AVEFA (wild oat) = assay: Post-emergence herbicidal activity, cool season; format: in vivo, Avena fatua; details: abraded plants sprayed at 300, 100, 30 and 10 g/ha; about 14 days after treatment
# Method: as §2, §3, §4, §5, §6
# [8] = test system: GALAP (catchweed bedstraw); assay: Pre-emergence herbicidal activity, cool season; format: in vivo, Galium aparine; details: lowest tested rate with 80% or greater inhibition; rates 300, 100, 30, 10 g/ha; about 14 days
# Summary of the method: as §1
# [9] = test system: VERPE (creeping speedwell); assay: Pre-emergence herbicidal activity, cool season; format: in vivo, Veronica persicaria; details: lowest tested rate with 80% or greater inhibition; rates 300, 100, 30, 10 g/ha; about 14 days
# Summary of the method: as §1
# [10] = test system: LAMPU (purple deadnettle); assay: Pre-emergence herbicidal activity, cool season; format: in vivo, Lamium purpureum; details: lowest tested rate with 80% or greater inhibition; rates 300, 100, 30, 10 g/ha; about 14 days
# Summary of the method: as §1
smiles,measurement,setting,value
"CCN(CC)C(=O)n1cnc(S(=O)(=O)C(F)(F)SCCO)n1 [Example 12, 1-(N,N-diethylcarbamoyl)-3-[(2-hydroxyethylthio)difluoromethylsulfonyl]-1,2,4-triazole]","Pre-emergence activity GR80, SINAR",SINAR (wild mustard),[empty]
same,Post-emergence activity (GR80) GALAP,[1],300 g/ha
same,"Post-emergence activity GR80, LOLMG",LOLMG (annual ryegrass),[empty]
same,Pre-emergence activity (GR80) BRAPP,[2],"* (activity observed, at least at highest rate, but <80% inhibition)"
same,"Post-emergence activity GR80, AEGCY",[3],[empty]
same,"Post-emergence activity GR80, AGRRE",[4],[empty]
same,Pre-emergence activity (GR80) AGSST,[5],300 g/ha
same,"Post-emergence activity GR80, AGSST",[6],[empty]
same,"Post-emergence activity GR80, BROTE",BROTE (downy brome),[empty]
same,Pre-emergence activity (GR80) PANMI,[7],"* (activity observed, at least at highest rate, but <80% inhibition)"
same,Pre-emergence activity (GR80) SORVU,SORVU (shattercane),"* (activity observed, at least at highest rate, but <80% inhibition)"
same,"Post-emergence activity GR80, SETVI",SETVI (green foxtail),[empty]
same,"Pre-emergence activity GR80, POLCO",POLCO (wild buckwheat),[empty]
same,Pre-emergence activity (GR80) ECHCG,ECHCG (barnyardgrass),"* (activity observed, at least at highest rate, but <80% inhibition)"
same,"Pre-emergence activity GR80, SASKR",SASKR (russian thistle),[empty]
same,"Pre-emergence activity GR80, STEME",STEME (common chickweed),300 g/ha
same,"Post-emergence activity GR80, ALOMY",ALOMY (blackgrass),[empty]
same,"Post-emergence activity GR80, AVEFA",AVEFA (wild oat),[empty]
same,"Pre-emergence activity GR80, GALAP",[8],[empty]
same,"Pre-emergence activity GR80, VERPE",[9],[empty]
same,"Pre-emergence activity GR80, LAMPU",[10],300 g/ha
